Laboratory results from PubChem BioAssay AID328 (DTP/NCI, 2004).
“And” between values parts separate entries of the source, which are not always exact repeats. Equal values may be shown once. Inconclusive results and toxic doses are left out. Non-standard residues stand in square brackets, D forms with d. Residues, ends and D or L forms follow the SMILES beside them. Ac5c = NC1(C(=O)O)CCCC1

System: BDF1 mice, P388 leukemia ip, median survival T/C
Experiment: NCI In Vivo Anticancer Drug Screen. Data for tumor model P388 Leukemia (intraperitoneal) in B6D2F1 (BDF1) mice
Conditions: endpoint: median survival time, higher = longer survival
How it was run: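 Antitumour effect was judged in vivo: survival in drug-treated mice, normalised to that of vehicle-dosed controls, gives the reported T/C.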

[1] = dose: 100.0 mg/kg/injection, schedule: Q04DX003 (ip), vehicle: Klucel (hydroxypropylcellulose) (HPC)
[2] = dose: 50.0 mg/kg/injection, schedule: Q01DX009 (ip), vehicle: saline with Tween-80
[3] = dose: 50.0 mg/kg/injection, schedule: Q04DX003 (ip), vehicle: saline
[4] = dose: 100.0 mg/kg/injection, schedule: Q01DX009 (ip), vehicle: saline with Tween-80
[5] = dose: 100.0 mg/kg/injection, schedule: Q04DX003 (ip), vehicle: saline
[6] = dose: 200.0 mg/kg/injection, schedule: Q04DX003 (ip), vehicle: saline
[7] = dose: 100.0 mg/kg/injection, schedule: Q04DX003 (ip), vehicle: saline with Tween-80
[8] = dose: 200.0 mg/kg/injection, schedule: Q01DX009 (ip), vehicle: saline with Tween-80
[9] = dose: 200.0 mg/kg/injection, schedule: Q04DX003 (ip), vehicle: saline with Tween-80
[10] = dose: 100.0 mg/kg/injection, schedule: Q01DX009 (ip), vehicle: saline
[11] = dose: 200.0 mg/kg/injection, schedule: Q01DX009 (ip), vehicle: saline
[12] = dose: 25.0 mg/kg/injection, schedule: Q01DX001 (ip), vehicle: saline sonified
[13] = dose: 50.0 mg/kg/injection, schedule: Q01DX001 (ip), vehicle: saline sonified

Which results are given for CCOc1cc(/C=N\Nc2nncn2N)ccc1N(CCCl)CCCl?
T/C (dose: 0.8 mg/kg/injection, schedule: Q04DX003 (ip), vehicle: saline with Tween-80): 113 % of control; T/C (dose: 3.0 mg/kg/injection, schedule: Q04DX003 (ip), vehicle: saline with Tween-80): 154 % of control; T/C (dose: 5.0 mg/kg/injection, schedule: Q04DX003 (ip), vehicle: saline with Tween-80): 169 % of control; T/C (dose: 8.0 mg/kg/injection, schedule: Q04DX003 (ip), vehicle: saline with Tween-80): 165 % of control; T/C (dose: 10.0 mg/kg/injection, schedule: Q04DX003 (ip), vehicle: saline with Tween-80): 210 % of control; T/C (dose: 12.0 mg/kg/injection, schedule: Q04DX003 (ip), vehicle: saline with Tween-80): 203 % of control; T/C (dose: 18.0 mg/kg/injection, schedule: Q04DX003 (ip), vehicle: saline with Tween-80): 278 % of control and 154 % of control; T/C (dose: 20.0 mg/kg/injection, schedule: Q04DX003 (ip), vehicle: saline with Tween-80): 275 % of control; T/C (dose: 26.0 mg/kg/injection, schedule: Q04DX003 (ip), vehicle: saline with Tween-80): 300 % of control and 163 % of control; T/C (dose: 40.0 mg/kg/injection, schedule: Q04DX003 (ip), vehicle: saline with Tween-80): 300 % of control and 105 % of control and 213 % of control

CC1(C)C2CC3C(=CCCC3(Cl)C#N)C1C2 (stereo not given) was tested. Which T/C [1] did it give?
The T/C was 100 % of control.

What about the T/C (dose: 200.0 mg/kg/injection, schedule: Q04DX003 (ip), vehicle: Klucel (hydroxypropylcellulose) (HPC)) of the same compound?
The T/C was 95 % of control.

What about the T/C (dose: 400.0 mg/kg/injection, schedule: Q04DX003 (ip), vehicle: Klucel (hydroxypropylcellulose) (HPC)) of the same compound?
The T/C was 95 % of control.

O=COC1CC2CC1C1CCCC21 (stereo not given) was tested. Which T/C [2] did it give?
The T/C was 122 % of control.

And the T/C [3]?
Its T/C is 100 % of control.

And the T/C [4]?
Its T/C is 109 % of control.

And the T/C [5]?
The T/C was 96 % of control.

What about the T/C [6] of the same compound?
The T/C was 100 % of control.

For O=C(O)c1ccc(-c2ccccc2)cc1, which T/C [2] is on record?
Its T/C is 100 % of control.

What about the T/C [4] of the same compound?
Its T/C is 104 % of control.

What about the T/C [7] of the same compound?
The T/C was 104 % of control.

What about the T/C [8] of the same compound?
The T/C was 95 % of control.

And the T/C [9]?
Its T/C is 104 % of control.

With COn1nnc2c(Cl)c(Cl)ccc21 as the compound, how does the T/C [7] read?
Its T/C is 95 % of control.

And the T/C [9]?
The T/C was 92 % of control.

What about the T/C (dose: 400.0 mg/kg/injection, schedule: Q04DX003 (ip), vehicle: saline with Tween-80) of the same compound?
Its T/C is 100 % of control.

For CN(C)c1nn2c(-c3ccccc3)nnc2s1, which T/C [10] is on record?
The T/C was 86 % of control.

And the T/C [11]?
The T/C was 90 % of control.

And the T/C (dose: 400.0 mg/kg/injection, schedule: Q01DX009 (ip), vehicle: saline)?
Its T/C is 100 % of control.

For CCCCN1CCNCC1, which T/C [3] is on record?
The T/C was 95 % of control.

What about the T/C [5] of the same compound?
Its T/C is 100 % of control.

What about the T/C [6] of the same compound?
Its T/C is 100 % of control.

NCC(=O)NC1(C(=O)O)CCCC1 (H-Gly-[Ac5c]-OH) was tested. Which T/C [10] did it give?
The T/C was 113 % of control.

And the T/C [11]?
Its T/C is 90 % of control.

Which results are given for COc1cc2cc(c1Cl)N(C)C(=O)CC(OC(C)=O)C1(C)OC1C(C)C1CC(O)(NC(=O)O1)C(OC)C=C/C=C(\C)C2 (stereo not given)?
T/C (dose: 0.2 micrograms/kg/injection, schedule: Q01DX009 (ip), vehicle: saline + alcohol): 90 % of control; T/C (dose: 0.4 micrograms/kg/injection, schedule: Q01DX009 (ip), vehicle: saline + alcohol): 95 % of control; T/C (dose: 0.8 micrograms/kg/injection, schedule: Q01DX009 (ip), vehicle: saline + alcohol): 95 % of control and 110 % of control; T/C (dose: 1.5 micrograms/kg/injection, schedule: Q01DX009 (ip), vehicle: saline + alcohol): 150 % of control; T/C (dose: 1.6 micrograms/kg/injection, schedule: Q01DX009 (ip), vehicle: saline + alcohol): 100 % of control; T/C (dose: 3.1 micrograms/kg/injection, schedule: Q01DX009 (ip), vehicle: saline + alcohol): 110 % of control; T/C (dose: 6.2 micrograms/kg/injection, schedule: Q01DX009 (ip), vehicle: saline + alcohol): 150 % of control; T/C (dose: 12.5 micrograms/kg/injection, schedule: Q01DX009 (ip), vehicle: saline + alcohol): 158 % of control; T/C (dose: 25.0 micrograms/kg/injection, schedule: Q01DX009 (ip), vehicle: saline + alcohol): 170 % of control and 173 % of control; T/C (dose: 50.0 micrograms/kg/injection, schedule: Q01DX009 (ip), vehicle: saline + alcohol): 183 % of control (2×) and 190 % of control; T/C (dose: 100.0 micrograms/kg/injection, schedule: Q01DX009 (ip), vehicle: saline + alcohol): 230 % of control and 204 % of control; T/C (dose: 200.0 micrograms/kg/injection, schedule: Q01DX009 (ip), vehicle: saline + alcohol): 100 % of control

How did the T/C (dose: 100.0 mg/kg/injection, schedule: Q01DX001 (ip), vehicle: saline with Tween-80) turn out when CC(C)NC(=O)c1ccccc1S(=O)c1ccccc1 (stereo not given) was run?
The T/C was 100 % of control.

And the T/C (dose: 200.0 mg/kg/injection, schedule: Q01DX001 (ip), vehicle: saline with Tween-80)?
The T/C was 101 % of control.

What about the T/C (dose: 400.0 mg/kg/injection, schedule: Q01DX001 (ip), vehicle: saline with Tween-80) of the same compound?
Its T/C is 92 % of control.

Which results are given for O=[N+]([O-])c1ccccn1?
T/C (dose: 6.25 mg/kg/injection, schedule: Q04DX003 (ip), vehicle: saline): 100 % of control; T/C (dose: 12.5 mg/kg/injection, schedule: Q04DX003 (ip), vehicle: saline): 100 % of control; T/C (dose: 25.0 mg/kg/injection, schedule: Q04DX003 (ip), vehicle: saline): 104 % of control

Which T/C (dose: 25.0 mg/kg/injection, schedule: Q01DX009 (ip), vehicle: saline with Tween-80) does the source give for O=C(O)CC(SC(CC(=O)O)C(F)(F)C(F)(F)C(F)(F)F)C(F)(F)C(F)(F)C(F)(F)F (stereo not given) here?
Its T/C is 100 % of control.

What about the T/C [2] of the same compound?
The T/C was 110 % of control.

What about the T/C [4] of the same compound?
Its T/C is 110 % of control.

With CCCCCCCCCCCCCCCCSCCCCCCCCCCCSCCCCCCCCCCCCCCCC as the compound, how does the T/C [12] read?
The T/C was 90 % of control.

And the T/C [13]?
The T/C was 90 % of control.

Which T/C [2] does the source give for Clc1ccc(N=Cc2cccs2)cc1 here?
The T/C was 96 % of control.

And the T/C [4]?
The T/C was 102 % of control.

And the T/C [8]?
Its T/C is 88 % of control.

With CCOC(=O)CCC(NC(=O)c1cc(Cl)c(N(C)S(=O)(=O)c2ccc(C)cc2)cc1Cl)C(=O)OCC (stereo not given) as the compound, how does the T/C [12] read?
The T/C was 109 % of control.

What about the T/C [13] of the same compound?
Its T/C is 104 % of control.

What about the T/C (dose: 100.0 mg/kg/injection, schedule: Q01DX001 (ip), vehicle: saline sonified) of the same compound?
Its T/C is 104 % of control.

With CC1(C(=O)N2CC2)OC1c1ccccc1 (stereo not given) as the compound, how does the T/C (dose: 25.0 mg/kg/injection, schedule: Q04DX002 (ip), vehicle: saline with Tween-80) read?
Its T/C is 91 % of control.

What about the T/C (dose: 50.0 mg/kg/injection, schedule: Q04DX002 (ip), vehicle: saline with Tween-80) of the same compound?
The T/C was 98 % of control.

What about the T/C (dose: 100.0 mg/kg/injection, schedule: Q04DX002 (ip), vehicle: saline with Tween-80) of the same compound?
The T/C was 96 % of control and 100 % of control.

For Cc1ccc(C(=O)C2CC2)cc1C, which T/C (dose: 33.0 mg/kg/injection, schedule: Q01DX009 (ip), vehicle: saline with Tween-80) is on record?
The T/C was 96 % of control.

What about the T/C [2] of the same compound?
Its T/C is 103 % of control.

And the T/C (dose: 50.0 mg/kg/injection, schedule: Q04DX003 (ip), vehicle: saline with Tween-80)?
The T/C was 104 % of control.

What about the T/C (dose: 75.0 mg/kg/injection, schedule: Q01DX009 (ip), vehicle: saline with Tween-80) of the same compound?
Its T/C is 111 % of control.

And the T/C [7]?
The T/C was 112 % of control.

What about the T/C [8] of the same compound?
The T/C was 120 % of control.

And the T/C [9]?
Its T/C is 112 % of control.

For CC(=O)O[C@H]1CC[C@H]2[C@@H]3CC[C@H]4C[C@@H]5[C@H](C[C@]4(C)[C@H]3CC[C@]12C)C5(F)F, which T/C (dose: 3.12 mg/kg/injection, schedule: Q04DX003 (ip), vehicle: Klucel (hydroxypropylcellulose) (HPC)) is on record?
Its T/C is 100 % of control.

What about the T/C (dose: 6.25 mg/kg/injection, schedule: Q01DX009 (ip), vehicle: Klucel (hydroxypropylcellulose) (HPC)) of the same compound?
Its T/C is 88 % of control.

What about the T/C (dose: 6.25 mg/kg/injection, schedule: Q04DX003 (ip), vehicle: Klucel (hydroxypropylcellulose) (HPC)) of the same compound?
Its T/C is 100 % of control.

And the T/C (dose: 12.5 mg/kg/injection, schedule: Q01DX009 (ip), vehicle: Klucel (hydroxypropylcellulose) (HPC))?
Its T/C is 92 % of control.

And the T/C (dose: 12.5 mg/kg/injection, schedule: Q04DX003 (ip), vehicle: Klucel (hydroxypropylcellulose) (HPC))?
The T/C was 100 % of control.

What about the T/C (dose: 25.0 mg/kg/injection, schedule: Q01DX009 (ip), vehicle: Klucel (hydroxypropylcellulose) (HPC)) of the same compound?
The T/C was 100 % of control.

What about the T/C [1] of the same compound?
Its T/C is 100 % of control.
